# In patent US9428507B2, “Compounds for the treatment of malaria” (The Broad Institute, Inc., priority 2013, dated 2016):
# Test system: Dd2 strain of P. falciparum
# Experiment: Activity against the Dd2 strain of P. falciparum (SYBR Green I, 72-h incubation)
# Assay type: cell-based
# Conditions: Plasmodium falciparum, DD2, 72 h, read-out: EC^50 Dd2
# Summary of the method: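 Dd2 parasites at 1% parasitemia and 1.0% hematocrit in albumax II screening medium, 72 h at 37° C under 93% N2/4% CO2/3% O2; final DMSO 0.125%. Growth read as SYBR Green I fluorescence (485/530 nm) after lysis and 24 h staining. 20 μM mefloquine defined background, DMSO baseline.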
row,Molecule,EC50
1,"COc1ccc2c3c([nH]c2c1)[C@H](CO)N(C(C)=O)CC31CCN(S(=O)(=O)Cc2ccccc2F)CC1 [Compound 44, (R)-1-(1-((2-fluorobenzyl)sulfonyl)-1′-(hydroxymethyl)-7′-methoxyspiro[piperidine-4,4′-pyrido[3,4-b]indol]-2′(1′H,3′H,9′H)-yl)ethanone]",1600 to 3280 nM
2,"COc1ccc2c3c(n(C)c2c1)[C@H](CO)N(Cc1ccc2c(c1)OCO2)CC31CN(C(=O)c2ccc3c(c2)OCO3)C1 [Compound 81, (R)-benzo[d][1,3] dioxol-5-y1(2′-(benzo[d][1,3]dioxol-5-ylmethyl)-1′-(hydroxymethyl)-7′-methoxy-9′-methyl-1′,2′,3′,9′-tetrahydrospiro[azetidine-3,4′-pyrido[3,4-b]indol]-1-yl)methanone]",130 nM
3,"COc1ccc2c3c(n(C)c2c1)[C@H](CO)N(Cc1ccc(Cl)cc1)CC31CCN(CC2CC2)CC1 [Compound 135, (R)-(2′-(4-chlorobenzyl)-1-(cyclopropylmethyl)-7′-methoxy-9′-methyl-1′,2′,3′,9′-tetrahydrospiro [piperidine-4,4′-pyrido[3,4-b]indol]-1′-yl) methanol]",2230 nM
4,"COc1ccc2c3c(n(C)c2c1)[C@@H](CO)N(C(=O)Nc1ccc(F)cc1)CC31CCN(Cc2ccccn2)CC1 [Compound 101, (S)-N-(4-fluorophenyl)-1′-(hydroxymethyl)-7′-methoxy-9′-methyl-1-(pyridin-2-ylmethyl)-3′,9′-dihydrospiro [piperidine-4,4′-pyrido[3,4-b]indole]-2′(1′H)-carboxamide]",2050 nM
5,"COc1ccc2c3c([nH]c2c1)[C@H](CO)N(Cc1ccc(Cl)cc1)CC31CCN(Cc2nccs2)CC1 [Compound 87, (R)-(2′-(4-chlorobenzyl)-7′-methoxy-1-(thiazol-2-ylmethyl)-1′,2′,3′,9′-tetrahydrospiro [piperidine-4,4′-pyrido[3,4-b]indol]-1′-yl)methanol]",78 nM
6,"COc1ccc2c3c([nH]c2c1)[C@H](CO)N(C(C)=O)CC31CCN(c2nc3ccccc3[nH]2)CC1 [Compound 136, (R)-1-(1-(1H-benzo[d]imidazol-2-yl)-1′-(hydroxymethyl)-7′-methoxyspiro[piperidine-4,4′-pyrido[3,4-b]indol]-2′(1′H,3′H,9′H)-yl) ethanone]",2470 nM
7,"COc1ccc2c3c([nH]c2c1)[C@H](CN1CCOCC1)N(C(C)=O)CC31CCN(C(=O)Nc2ccccc2F)CC1 [Compound 65, (S)-2′-acetyl-N-(2-fluorophenyl)-7′-methoxy-1′-(morpholinomethyl)-1′,2′,3′,9′-tetrahydrospiro[piperidine-4,4′-pyrido[3,4-b]indole]-1-carboxamide]",882 nM
8,"CC(=O)Oc1ccc2c3c([nH]c2c1)[C@H](CO)N(C(C)=O)CC31CCN(C(=O)Nc2ccccc2F)CC1 [Compound 138, (R)-1-(1-(benzo[d]thiazol-2-yl)-1′-(hydroxymethyl)-7′-methoxyspiro [piperidine-4,4′-py(R)-2′-acetyl-1-((2-fluorophenyl)carbamoyl)-1′-(hydroxymethyl)-1′,2′,3′,9′-tetrahydrospiro [piperidine-4,4′-pyrido[3,4-b]indol]-7′-ylacetaterido[3,4-b]indol]-2′(1′H,3′H,9′H)-yl)ethanone]",4500 nM
9,"CCCS(=O)(=O)N1CC2(CCN(C(=O)Nc3ccccc3F)CC2)c2c([nH]c3cc(OC)ccc23)[C@@H]1CO [Compound 149, (R)-N-(2-fluorophenyl)-1′-(hydroxymethyl)-7′-methoxy-2′-(propylsulfonyl)-1′,2′,3′,9′-tetrahydrospiro [piperidine-4,4′-pyrido[3,4-b]indole]-1-carboxamide]",221 nM
10,"COc1ccc2c3c(n(C)c2c1)[C@@H](CO)N(CC1CCCCC1)CC31CCN(Cc2nccs2)CC1 [Compound 109, (S)-(2′-(cyclohexylmethyl)-7′-methoxy-9′-methyl-1-(thiazol-2-ylmethyl)-1′,2′,3′,9′-tetrahydrospiro [piperidine-4,4′-pyrido[3,4-b]indol]-1′-yl)methanol]",1030 nM
11,"CCS(=O)(=O)N1CC2(CCN(C(=O)OC(C)(C)C)CC2)c2c([nH]c3cc(OC)ccc23)[C@@H]1CO [Compound 148, (R)-tert-butyl 2′-(ethylsulfonyl)-1′-(hydroxymethyl)-7′-methoxy-1′,2′,3′,9′-tetrahydrospiro [piperidine-4,4′-pyrido[3,4-b]indole]-1-carboxylate]",8530 nM
12,"COc1ccc2c3c([nH]c2c1)C(C)(C)N(C(C)=O)CC31CCN(C(=O)Nc2ccccc2F)CC1 [Compound 2, 2′-acetyl-N-(2-fluorophenyl)-7′ -methoxy-1′,1′-dimethyl-1′,2′,3′,9′-tetrahydrospiro [piperidine-4,4′-pyrido[3,4-b]indole]-1-carboxamide]",120 to 303 nM
13,"CCS(=O)(=O)N1CC2(CCN(C(=O)Nc3ccccc3F)CC2)c2c([nH]c3cc(OC)ccc23)[C@@H]1CO [Compound 150, (R)-2′-(ethylsulfonyl)-N-(2-fluorophenyl)-1′-(hydroxymethyl)-7′-methoxy-1′,2′,3′,9′-tetrahydrospiro [piperidine-4,4′-pyrido[3,4-b]indole]-1-carboxamide]",14 to 58 nM
14,"CCCN1CCC2(CC1)CN(Cc1ccccc1OC)[C@H](CO)c1c2c2ccc(OC)cc2n1C [Compound 92, (S)-(7′-methoxy-2′-(2-methoxybenzyl)-9′-methyl-1-propyl-1′,2′,3′,9′-tetrahydrospiro [piperidine-4,4′-pyrido[3,4-b]indol]-1′-yl) methanol]",681 nM
15,"COc1ccc2c3c([nH]c2c1)[C@H](CO)N(Cc1cccc(F)c1)CC31CCN(Cc2ccccn2)CC1 [Compound 78, (R)-(2′-(3-fluorobenzyl)-7′-methoxy-1-(pyridin-2-ylmethyl)-1′,2′,3′,9′-tetrahydrospiro [piperidine-4,4′-pyrido[3,4-b]indol]-1′-yl)methanol]",905 nM
16,"COc1ccc(COC[C@H]2c3[nH]c4cc(OC)ccc4c3C3(CCN(C(=O)Nc4ccccc4F)CC3)CN2C(C)=O)cc1 [Compound 66, (R)-2′-acetyl-N-(2-fluorophenyl)-7′-methoxy-1′-(((4-methoxybenzyl)oxy)methyl)-1′,2′,3′,9′-tetrahydrospiro[piperidine-4,4′-pyrido[3,4-b]indole]-1-carboxamide]",422 nM
17,"COc1ccc2c3c(n(C)c2c1)[C@@H](CO)N(C(=O)C1CC1)CC31CN(C(=O)Nc2cccc(F)c2)C1 [Compound 93, (S)-2′-(cyclopropanecarbonyl)-N-(3-fluorophenyl)-1′-(hydroxymethyl)-7′-methoxy-9′-methyl-1′,2′,3′,9′-tetrahydrospiro [azetidine-3,4′-pyrido[3,4-b]indole]-1-carboxamide]",195 nM

# Same assay, conditions: read-out: EC^50 Dd2
row,Molecule,EC50
1,COc1ccc2c3c([nH]c2c1)[C@H](CO)N(C(=O)Cc1ccccc1)CC31CCN(C(=O)Nc2ccccc2F)CC1 [Compound 12],246 to 291 nM
2,"Mixture of (1R,3′R) and (1R,3′s)-2-acetyl-N-(2- fluorophenyl)-1- (hydroxymethyl)-7- methoxy-1,2,3,9- tetrahydrospiro[pyrido [3,4-b]indole-4,3′- pyrrolidine]-1′- carboxamide compound with (1R,3′S)-2- acetyl-N-(2- fluorophenyl)-1- (hydroxymethyl)-7- methoxy- 1,2,3,9-tetrahydrospiro [pyrido[3,4-b] indole-4,3′-pyrrolidine]- 1′-carboxamide (1:1) [Compound 72]",16500 nM
